Here are results for one compound from publication PMC7206119, “RIP1 inhibition blocks inflammatory diseases but not tumor growth or metastases” (Cell Death and Differentiation, 2019).

Some targets named below: ACVR1B (Homo sapiens, UniProt P36896); AKT3 (Homo sapiens, UniProt Q9Y243); AURKC (Homo sapiens, UniProt Q9UQB9); CHEK1 (Homo sapiens, UniProt O14757); CSNK2A2 (Homo sapiens, UniProt P19784); EGFR(L747-T751del,Sins) (Homo sapiens, UniProt P00533, DEL747-750/T751S); EGFR(S752-I759del) (Homo sapiens, UniProt P00533, DEL752-759); FGR (Homo sapiens, UniProt P09769); FLT1 (Homo sapiens, UniProt P17948); MAP3K3 (Homo sapiens, UniProt Q99759); MELK (Homo sapiens, UniProt Q14680); MST1R (Homo sapiens, UniProt Q04912); PIK3CA(I800L) (Homo sapiens, UniProt P42336, I800L); TBK1 (Homo sapiens, UniProt Q9UHD2); TEC (Homo sapiens, UniProt P42680); TNK1 (Homo sapiens, UniProt Q13470).

Common to all, as to experiment: biochemical
Holding throughout (design): DiscoverX kinase panel, active-site competition binding (KINOMEscan type), percent of control at one concentration
What all share (settings): competition binding, percent of control

The target of experiment [1] is T1, ABL1(Q252H)-phosphorylated (Homo sapiens, UniProt P00519, Q252H).
T1 construct: phosphorylated

For experiment [2], the target named is T2, ABL1(Y253F)-phosphorylated (Homo sapiens, UniProt P00519, Y253F).
T2 construct: phosphorylated

The target in another experiment is T3, CDC2L1 (Homo sapiens, UniProt P21127).
T3 construct: gene CDK11B

The next experiment addresses T4, CDC2L2 (Homo sapiens, UniProt Q9UQ88).
T4 construct: gene CDK11A

Another experiment addresses T5, PFCDPK1(P.falciparum) (Plasmodium falciparum, UniProt P62344).
T5 construct: gene CDPK1

Sequence of FGR (P09769 whole entry): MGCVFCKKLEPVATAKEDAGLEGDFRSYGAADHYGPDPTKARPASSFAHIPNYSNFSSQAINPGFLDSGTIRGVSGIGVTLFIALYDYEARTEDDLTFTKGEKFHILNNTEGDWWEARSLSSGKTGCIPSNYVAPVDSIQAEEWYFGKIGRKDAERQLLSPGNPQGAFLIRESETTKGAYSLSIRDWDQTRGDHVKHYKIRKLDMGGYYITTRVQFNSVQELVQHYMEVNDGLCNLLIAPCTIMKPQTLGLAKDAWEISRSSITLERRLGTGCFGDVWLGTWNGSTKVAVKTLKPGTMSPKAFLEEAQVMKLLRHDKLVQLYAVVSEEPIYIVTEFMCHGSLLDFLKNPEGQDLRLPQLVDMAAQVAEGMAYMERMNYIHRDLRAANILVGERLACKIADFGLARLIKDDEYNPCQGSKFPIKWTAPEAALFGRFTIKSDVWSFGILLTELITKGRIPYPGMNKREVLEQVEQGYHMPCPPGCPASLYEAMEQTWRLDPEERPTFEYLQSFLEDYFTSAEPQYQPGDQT
T5 sequence (P62344 whole entry): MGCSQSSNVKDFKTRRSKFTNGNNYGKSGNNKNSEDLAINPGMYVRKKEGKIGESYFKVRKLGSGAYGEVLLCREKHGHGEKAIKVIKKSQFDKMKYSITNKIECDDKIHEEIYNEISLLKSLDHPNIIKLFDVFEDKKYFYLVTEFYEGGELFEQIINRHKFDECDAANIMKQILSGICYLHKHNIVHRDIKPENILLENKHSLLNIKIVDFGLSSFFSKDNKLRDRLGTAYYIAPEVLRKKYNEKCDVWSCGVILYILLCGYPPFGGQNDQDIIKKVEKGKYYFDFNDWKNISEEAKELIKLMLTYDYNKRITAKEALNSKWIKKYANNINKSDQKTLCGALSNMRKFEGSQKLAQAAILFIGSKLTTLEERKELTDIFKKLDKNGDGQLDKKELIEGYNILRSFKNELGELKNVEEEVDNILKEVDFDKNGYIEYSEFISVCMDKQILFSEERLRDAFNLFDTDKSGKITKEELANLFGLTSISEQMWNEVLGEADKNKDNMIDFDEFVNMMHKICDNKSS
Sequence of MAP3K3 (Q99759 whole entry): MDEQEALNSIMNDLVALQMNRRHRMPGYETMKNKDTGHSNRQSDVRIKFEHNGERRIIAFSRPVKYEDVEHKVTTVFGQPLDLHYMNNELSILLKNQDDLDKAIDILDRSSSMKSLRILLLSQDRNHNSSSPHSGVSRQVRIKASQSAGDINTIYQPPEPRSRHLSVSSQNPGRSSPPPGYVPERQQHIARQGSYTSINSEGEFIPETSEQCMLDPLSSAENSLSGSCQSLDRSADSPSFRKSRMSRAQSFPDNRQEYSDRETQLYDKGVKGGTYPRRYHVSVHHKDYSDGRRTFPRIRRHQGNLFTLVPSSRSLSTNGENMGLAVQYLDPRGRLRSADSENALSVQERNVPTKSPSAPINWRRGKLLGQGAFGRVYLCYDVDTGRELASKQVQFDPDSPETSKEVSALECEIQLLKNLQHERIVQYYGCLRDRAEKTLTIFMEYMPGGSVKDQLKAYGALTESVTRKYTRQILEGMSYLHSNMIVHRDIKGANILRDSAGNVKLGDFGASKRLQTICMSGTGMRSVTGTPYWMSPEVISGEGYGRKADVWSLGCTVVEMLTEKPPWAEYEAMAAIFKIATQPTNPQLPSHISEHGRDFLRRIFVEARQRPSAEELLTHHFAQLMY
Sequence of TEC (P42680 whole entry): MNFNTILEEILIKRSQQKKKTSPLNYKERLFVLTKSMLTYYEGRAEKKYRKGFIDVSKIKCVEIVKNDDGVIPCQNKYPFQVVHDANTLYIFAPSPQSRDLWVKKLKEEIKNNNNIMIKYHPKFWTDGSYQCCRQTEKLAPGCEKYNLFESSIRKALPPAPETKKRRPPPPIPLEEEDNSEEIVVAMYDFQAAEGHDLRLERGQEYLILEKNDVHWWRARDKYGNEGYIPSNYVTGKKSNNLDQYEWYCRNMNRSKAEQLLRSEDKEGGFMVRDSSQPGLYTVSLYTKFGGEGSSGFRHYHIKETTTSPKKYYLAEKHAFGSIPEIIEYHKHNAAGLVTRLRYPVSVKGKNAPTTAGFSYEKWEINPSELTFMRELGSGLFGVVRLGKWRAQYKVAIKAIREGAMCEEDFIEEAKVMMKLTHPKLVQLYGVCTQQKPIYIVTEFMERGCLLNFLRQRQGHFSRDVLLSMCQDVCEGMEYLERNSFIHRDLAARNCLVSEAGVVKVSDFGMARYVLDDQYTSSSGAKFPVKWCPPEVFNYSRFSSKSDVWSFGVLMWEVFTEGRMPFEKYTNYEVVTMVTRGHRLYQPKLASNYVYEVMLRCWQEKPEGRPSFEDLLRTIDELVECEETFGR
Sequence of CHEK1 (O14757 whole entry): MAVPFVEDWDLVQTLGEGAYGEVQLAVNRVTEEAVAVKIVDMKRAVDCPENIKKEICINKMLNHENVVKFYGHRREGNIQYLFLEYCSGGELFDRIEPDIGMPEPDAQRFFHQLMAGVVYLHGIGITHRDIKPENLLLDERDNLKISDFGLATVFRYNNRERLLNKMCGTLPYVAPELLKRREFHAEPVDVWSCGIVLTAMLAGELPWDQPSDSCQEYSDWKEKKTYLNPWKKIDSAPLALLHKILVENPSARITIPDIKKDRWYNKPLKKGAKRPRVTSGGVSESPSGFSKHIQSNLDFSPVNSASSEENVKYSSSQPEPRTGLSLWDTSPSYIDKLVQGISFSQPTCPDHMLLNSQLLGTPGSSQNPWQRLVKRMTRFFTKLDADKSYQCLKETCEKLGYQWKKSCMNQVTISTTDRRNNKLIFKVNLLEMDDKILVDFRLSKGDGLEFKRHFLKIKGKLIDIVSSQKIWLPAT
Sequence of EGFR(S752-I759del) (P00533 with tags, fused parts or gaps DEL752-759): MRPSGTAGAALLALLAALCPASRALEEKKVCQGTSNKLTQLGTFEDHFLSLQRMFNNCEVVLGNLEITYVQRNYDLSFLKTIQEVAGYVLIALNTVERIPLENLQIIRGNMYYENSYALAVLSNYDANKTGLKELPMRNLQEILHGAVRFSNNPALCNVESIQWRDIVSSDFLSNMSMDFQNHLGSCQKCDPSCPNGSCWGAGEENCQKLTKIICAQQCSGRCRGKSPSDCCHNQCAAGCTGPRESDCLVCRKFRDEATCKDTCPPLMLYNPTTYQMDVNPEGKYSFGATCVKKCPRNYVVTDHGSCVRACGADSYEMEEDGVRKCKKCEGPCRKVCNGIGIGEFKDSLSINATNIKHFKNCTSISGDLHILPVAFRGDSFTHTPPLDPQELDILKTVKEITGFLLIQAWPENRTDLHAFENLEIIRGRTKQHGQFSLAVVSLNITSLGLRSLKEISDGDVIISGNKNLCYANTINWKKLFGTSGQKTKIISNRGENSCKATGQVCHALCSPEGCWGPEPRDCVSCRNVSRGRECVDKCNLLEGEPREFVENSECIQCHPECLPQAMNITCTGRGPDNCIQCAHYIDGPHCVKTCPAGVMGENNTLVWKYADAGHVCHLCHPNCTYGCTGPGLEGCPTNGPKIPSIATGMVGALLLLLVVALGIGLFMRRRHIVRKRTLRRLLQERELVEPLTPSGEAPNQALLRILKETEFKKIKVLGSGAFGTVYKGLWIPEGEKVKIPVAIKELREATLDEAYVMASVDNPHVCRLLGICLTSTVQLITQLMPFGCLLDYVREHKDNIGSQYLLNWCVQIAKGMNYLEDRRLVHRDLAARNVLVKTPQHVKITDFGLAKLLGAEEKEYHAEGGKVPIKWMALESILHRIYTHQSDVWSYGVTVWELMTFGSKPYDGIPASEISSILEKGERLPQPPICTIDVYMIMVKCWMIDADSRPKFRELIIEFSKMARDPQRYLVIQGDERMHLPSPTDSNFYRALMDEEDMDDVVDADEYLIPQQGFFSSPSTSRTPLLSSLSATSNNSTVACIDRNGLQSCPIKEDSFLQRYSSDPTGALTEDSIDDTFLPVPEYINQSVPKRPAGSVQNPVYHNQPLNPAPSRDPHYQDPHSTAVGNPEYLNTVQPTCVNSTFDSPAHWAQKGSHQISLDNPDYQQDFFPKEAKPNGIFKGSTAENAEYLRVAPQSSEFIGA
Sequence of AURKC (Q9UQB9 whole entry): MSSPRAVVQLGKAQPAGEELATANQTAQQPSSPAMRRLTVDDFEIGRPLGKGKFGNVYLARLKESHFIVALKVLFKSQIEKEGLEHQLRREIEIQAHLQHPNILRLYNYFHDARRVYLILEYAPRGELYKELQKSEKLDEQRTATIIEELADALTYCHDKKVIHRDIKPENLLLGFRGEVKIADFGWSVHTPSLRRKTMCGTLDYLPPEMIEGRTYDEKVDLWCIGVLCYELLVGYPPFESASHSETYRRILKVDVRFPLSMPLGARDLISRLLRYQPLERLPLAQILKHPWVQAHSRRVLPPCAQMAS
Sequence of ACVR1B (P36896 whole entry): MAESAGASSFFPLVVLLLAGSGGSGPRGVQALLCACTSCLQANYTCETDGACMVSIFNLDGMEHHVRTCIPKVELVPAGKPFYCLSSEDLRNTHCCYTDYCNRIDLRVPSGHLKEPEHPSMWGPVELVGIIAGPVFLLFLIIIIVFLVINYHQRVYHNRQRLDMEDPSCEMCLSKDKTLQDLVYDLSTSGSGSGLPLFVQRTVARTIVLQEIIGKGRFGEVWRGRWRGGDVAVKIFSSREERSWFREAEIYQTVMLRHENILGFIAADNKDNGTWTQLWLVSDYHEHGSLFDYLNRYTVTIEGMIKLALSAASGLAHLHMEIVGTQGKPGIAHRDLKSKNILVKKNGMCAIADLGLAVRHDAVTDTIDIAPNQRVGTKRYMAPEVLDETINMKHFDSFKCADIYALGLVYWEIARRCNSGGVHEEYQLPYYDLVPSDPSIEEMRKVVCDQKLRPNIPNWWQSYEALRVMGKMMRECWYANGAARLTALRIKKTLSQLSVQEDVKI

With `COc1cc2c(cn1)N(C)C(=O)[C@@H](NC(=O)c1nc3n(n1)[C@H](c1ccccc1)CC3)CC2` [GNE684, (S)-N-((S)-7-methoxy-1-methyl-2-oxo-2,3,4,5-tetrahydro-1H-pyrido[3,4-b]azepin-3-yl)-5-phenyl-6,7-dihydro-5H-pyrrolo[1,2-b][1,2,4]triazole-2-carboxamide], the remaining binding at 10 µM in experiment [1] was determined as 96%; in experiment [2] it was 100%; on ACVR1B it was 93%; on AKT3, 75%; at AURKC it was 93%; on CDC2L1, 100%. The remaining binding at 10 µM at CDC2L2 was 98%; at CHEK1, 100%; at CSNK2A2, 85%; at EGFR(L747-T751del,Sins) it was 84%; on EGFR(S752-I759del) it was 97%; at FGR, 94%. The remaining binding at 10 µM on FLT1 was found to be 100%; at MAP3K3, 98%; on MELK it was 93%; on MST1R it was 94%; at PFCDPK1(P.falciparum), 100%; at PIK3CA(I800L), 96%. Besides, the values for the remaining binding at 10 µM at TBK1, at TEC and on TNK1 were 94%, 100% and 100%, respectively.
